Results on 10 compounds are retold here after patent US11292801B2, “Calpain modulators and therapeutic uses thereof” (Blade Therapeutics, Inc., priority 2016, dated 2022).

Experiment [1] addresses T1, Human Calpain 1/NS1 (Homo sapiens, UniProt P07384).
T1 sequence (P07384 1-714): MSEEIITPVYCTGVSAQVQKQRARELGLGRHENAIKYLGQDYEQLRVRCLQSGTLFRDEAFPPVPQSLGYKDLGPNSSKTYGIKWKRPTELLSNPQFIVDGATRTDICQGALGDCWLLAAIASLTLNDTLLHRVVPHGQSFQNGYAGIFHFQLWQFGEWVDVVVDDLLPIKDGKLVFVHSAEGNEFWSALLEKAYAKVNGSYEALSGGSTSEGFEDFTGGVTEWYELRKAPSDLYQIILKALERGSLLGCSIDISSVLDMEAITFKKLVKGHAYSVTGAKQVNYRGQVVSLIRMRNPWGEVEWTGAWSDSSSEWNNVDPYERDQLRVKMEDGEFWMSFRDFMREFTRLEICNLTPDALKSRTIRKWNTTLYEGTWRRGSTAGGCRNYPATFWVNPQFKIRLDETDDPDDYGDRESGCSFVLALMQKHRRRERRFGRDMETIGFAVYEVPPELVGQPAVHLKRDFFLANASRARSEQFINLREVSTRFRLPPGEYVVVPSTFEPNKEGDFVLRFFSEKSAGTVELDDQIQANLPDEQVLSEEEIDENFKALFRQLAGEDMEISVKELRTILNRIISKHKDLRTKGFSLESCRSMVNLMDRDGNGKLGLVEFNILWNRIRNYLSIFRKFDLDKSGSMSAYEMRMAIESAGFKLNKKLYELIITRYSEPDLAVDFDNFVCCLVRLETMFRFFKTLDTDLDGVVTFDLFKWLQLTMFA
T1 sequence (P04632 1-268 partner): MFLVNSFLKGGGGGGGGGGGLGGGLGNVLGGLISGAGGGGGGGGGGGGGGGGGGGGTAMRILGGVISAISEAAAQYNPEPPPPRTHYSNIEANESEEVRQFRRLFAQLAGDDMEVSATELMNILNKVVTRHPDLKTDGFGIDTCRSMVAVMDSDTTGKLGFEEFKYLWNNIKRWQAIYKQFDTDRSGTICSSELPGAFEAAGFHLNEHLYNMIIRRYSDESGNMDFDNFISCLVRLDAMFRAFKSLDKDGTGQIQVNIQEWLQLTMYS
Nature of the experiment: Biochemical inhibition of calpain 1, continuous fluorescence (FRET substrate) assay. Particulars: mean, read-out: Human Calpain 1/NS1 IC50 (nM)_MEAN. An outline of the steps: (§1)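 Continuous FRET assay with 5-FAM/QXL520 peptide substrate in 50 mM Tris pH ~7.5, 100 mM NaCl, 1 mM DTT. Enzyme preincubated with inhibitor at 25C; reaction started with substrate plus CaCl2, read at 490/520 nm for 10 min. Rates from slopes over 1-5 min, IC50 from 4-parameter logistic fit.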

Experiment [2] deals with T2, Human Calpain 2/NS1 (Homo sapiens, UniProt P17655).
T2 sequence (P17655 1-700): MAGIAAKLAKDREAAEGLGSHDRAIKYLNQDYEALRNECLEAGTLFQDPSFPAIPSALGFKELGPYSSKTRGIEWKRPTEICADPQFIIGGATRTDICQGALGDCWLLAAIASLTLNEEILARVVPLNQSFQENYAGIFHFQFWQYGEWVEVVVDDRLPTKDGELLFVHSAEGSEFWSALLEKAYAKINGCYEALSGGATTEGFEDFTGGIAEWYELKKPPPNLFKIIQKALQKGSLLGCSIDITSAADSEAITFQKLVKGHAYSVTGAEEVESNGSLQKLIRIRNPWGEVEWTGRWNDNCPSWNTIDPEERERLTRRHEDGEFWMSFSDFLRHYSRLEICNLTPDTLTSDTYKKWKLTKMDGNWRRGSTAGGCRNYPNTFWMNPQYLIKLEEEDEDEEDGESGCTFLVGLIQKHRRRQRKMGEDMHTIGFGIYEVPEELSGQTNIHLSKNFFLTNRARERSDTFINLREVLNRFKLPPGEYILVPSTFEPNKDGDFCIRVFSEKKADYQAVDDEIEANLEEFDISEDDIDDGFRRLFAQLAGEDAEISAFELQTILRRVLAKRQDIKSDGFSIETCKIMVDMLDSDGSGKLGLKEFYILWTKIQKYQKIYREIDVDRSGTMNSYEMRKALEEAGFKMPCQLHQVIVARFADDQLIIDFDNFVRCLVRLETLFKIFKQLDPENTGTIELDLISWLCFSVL
T2 sequence (P04632 1-268 partner): T1 sequence (P04632 1-268 partner)
The experiment can be described thus: Biochemical inhibition of calpain 2, continuous fluorescence (FRET substrate) assay. Particulars: mean, read-out: Human Calpain 2/NS1 IC50 (nM)_MEAN. In outline:
as §1

For experiment [3], the target named is T3, Human Calpain 9/NS1 (Homo sapiens, UniProt O14815).
T3 sequence (O14815 1-690): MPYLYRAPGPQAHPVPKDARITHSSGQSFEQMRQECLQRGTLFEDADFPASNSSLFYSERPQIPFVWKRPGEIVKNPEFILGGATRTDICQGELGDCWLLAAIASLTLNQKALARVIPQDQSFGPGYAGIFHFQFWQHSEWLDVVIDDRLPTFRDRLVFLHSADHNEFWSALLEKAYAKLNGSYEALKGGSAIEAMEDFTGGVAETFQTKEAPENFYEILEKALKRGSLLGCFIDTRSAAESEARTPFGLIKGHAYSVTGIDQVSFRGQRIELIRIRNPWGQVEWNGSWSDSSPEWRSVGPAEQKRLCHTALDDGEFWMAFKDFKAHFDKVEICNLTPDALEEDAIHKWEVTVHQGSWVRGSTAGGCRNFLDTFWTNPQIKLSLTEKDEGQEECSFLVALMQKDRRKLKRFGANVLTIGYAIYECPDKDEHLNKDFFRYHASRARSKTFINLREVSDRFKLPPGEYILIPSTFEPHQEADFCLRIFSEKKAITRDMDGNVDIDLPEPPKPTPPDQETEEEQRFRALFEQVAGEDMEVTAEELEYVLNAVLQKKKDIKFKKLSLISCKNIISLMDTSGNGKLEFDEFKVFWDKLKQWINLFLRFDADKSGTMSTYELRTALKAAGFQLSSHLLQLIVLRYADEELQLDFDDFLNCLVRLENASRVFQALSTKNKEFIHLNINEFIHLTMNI
T3 sequence (P04632 1-268 partner): T1 sequence (P04632 1-268 partner)
The experiment can be described thus: Biochemical inhibition of calpain 9, continuous fluorescence (FRET substrate) assay. Particulars: mean, read-out: Human Calpain 9/NS1 IC50 (nM)_MEAN. In outline: as §1

The structures appear in SMILES notation. Where only a bound is given, the exact number is not on record here.

In the case of `CCOC(=O)CNC(=O)C(=O)[C@@H]1CCCCOCCOCc2ccccc2C(=O)N1` [Compound 56, Ethyl (S)-(2-oxo-2-(12-oxo-1,3,4,6,7,8,9,10,11,12-decahydrobenzo[f][1,4]dioxa[9]azacyclotetradecin-10-yl)acetyl)glycinate], the IC50 in experiment [1] is > 10000 nM; in experiment [2], < 3000 nM; in experiment [3], < 3000 nM.
For `CN(C)CCCNC(=O)C(=O)C1CCCCOCCOCc2ccccc2C(=O)N1` (stereo not drawn) [Compound 93, N-(3-(dimethylamino)propyl)-2-oxo-2-(12-oxo-1,3,4,6,7,8,9,10,11,12-decahydrobenzo[f][1,4]dioxa[9]azacyclotetradecin-10-yl)acetamide], the IC50 in experiment [1], in experiment [2] and in experiment [3] was > 10000 nM each time.
Turning to `NC(=O)C(=O)[C@@H]1C/C=C/CCOc2ccnc(n2)-c2ccccc2C(=O)N1` [Compound 137, (S,E)-2-oxo-2-(3-oxo-11-oxa-4-aza-1(2,4)-pyrimidina-2(1,2)-benzenacycloundecaphan-7-en-5-yl)acetamide], the IC50 in experiment [1], in experiment [2] and in experiment [3] was < 3000 nM each time.
Take `CS(=O)(=O)c1ccc(CNC(=O)C(=O)C2CCCCOCCOCc3ccccc3C(=O)N2)cc1` (stereo not drawn) [Compound 121, N-(4-(methylsulfonyl)benzyl)-2-oxo-2-(12-oxo-1,3,4,6,7,8,9,10,11,12-decahydrobenzo[f][1,4]dioxa[9]azacyclotetradecin-10-yl)acetamide]: the IC50 is > 10000 nM in experiment [1], 3000 to 10000 nM in experiment [2] and < 3000 nM in experiment [3].
The like results for `O=C(NC1CC1)C(=O)[C@@H]1Cc2ccc(cc2)CCCCc2cccc(c2)-c2ccn(n2)-c2ncccc2C(=O)N1` [Compound 74, N-cyclopropyl-2-oxo-2-((10S,E)-12-oxo-2′H-11-aza-1(2,3)-pyridina-2(1,3)-pyrazola-3(1,3),8(1,4)-dibenzenacyclododecaphane-10-yl)acetamide] were, in that order, < 3000 nM, < 3000 nM and < 3000 nM.
The corresponding values for `CCOC(=O)CCNC(=O)C(=O)[C@@H]1CCCCOCCOCc2ccccc2C(=O)N1` [Compound 55, Ethyl (S)-3-(2-oxo-2-(12-oxo-1,3,4,6,7,8,9,10,11,12-decahydrobenzo[f][1,4]dioxa[9]azacyclotetradecin-10-yl)acetamido)propanoate] are > 10000 nM, 3000 to 10000 nM and 3000 to 10000 nM.
In the case of `C[C@@H](NC(=O)C(=O)C1CCCCOCCOCc2ccccc2C(=O)N1)c1cccnc1` (stereo partly drawn) [Compound 127, 2-Oxo-2-(12-oxo-1,3,4,6,7,8,9,10,11,12-decahydrobenzo[f][1,4]dioxa[9]aza-cyclotetradecin-10-yl)-N—((R)-1-(pyridin-3-yl)ethyl)acetamide], the IC50 in experiment [1], in experiment [2] and in experiment [3] was > 10000 nM each time.
As for `O=C[C@@H]1CC=CCOCCCOCc2ccccc2C(=O)N1` [Compound 11, (S)-13-Oxo-1,4,5,7,10,11,12,13-octahydro-3h-benzo[g][1,5]dioxa[10]aza-cyclopentadecine-11-carbaldehyde], the results for the IC50 in experiment [1], in experiment [2] and in experiment [3] were 3000 to 10000 nM, < 3000 nM and < 3000 nM, respectively.
Take `NC(=O)C(=O)[C@@H]1CCCCOCCOCc2ccccc2C(=O)N1` [Compound 57, (S)-2-Oxo-2-(12-oxo-1,3,4,6,7,8,9,10,11,12-decahydrobenzo[f][1,4]dioxa[9]azacyclotetradecin-10-yl)acetamide]: the IC50 in experiment [1] is 3000 to 10000 nM; in experiment [2], < 3000 nM; in experiment [3], < 3000 nM.
`O=C[C@@H]1CC=CCOCCCCOCc2ccccc2C(=O)N1` [Compound 12, (S)-14-Oxo-1,3,4,5,6,8,11,12,13,14-decahydrobenzo[h][1,6]dioxa[11]aza-cyclohexadecine-12-carbaldehyde]: the figures for the IC50 in experiment [1], in experiment [2] and in experiment [3] were < 3000 nM, < 3000 nM and 3000 to 10000 nM, respectively.
